Reference: the NIST ThermoML archive (doi:10.1007/s10765-007-0223-x)
± gives the expanded uncertainty stated by the source.

Assay: xn = mol fraction of the nth substance listed
Conditions: 101 kPa, Liquid; for speed of sound: Single path-length method

Which results are given for COC(C)(C)C [2-methoxy-2-methylpropane] + Cc1ccccc1?
speed of sound (315.65 K, x1 = 0.61): 1065.8 ± 2.1 m/s; speed of sound (315.65 K, x1 = 0.688): 1044.9 ± 2.1 m/s; speed of sound (315.65 K, x1 = 0.797): 1015.6 ± 2.1 m/s; speed of sound (315.65 K, x1 = 0.902): 986.8 ± 2.1 m/s; speed of sound (315.65 K, x1 = 0.943): 974.25 ± 2.1 m/s; speed of sound (315.65 K, x1 = 1): 956.8 ± 2.1 m/s; mass density (315.65 K, x1 = 0.053): 838.757 ± 0.43 kg/m3; mass density (315.65 K, x1 = 0.116): 830.517 ± 0.45 kg/m3; mass density (315.65 K, x1 = 0.199): 819.682 ± 0.46 kg/m3; mass density (315.65 K, x1 = 0.301): 806.341 ± 0.48 kg/m3; mass density (315.65 K, x1 = 0.371): 797.359 ± 0.49 kg/m3; mass density (315.65 K, x1 = 0.463): 785.32 ± 0.51 kg/m3; mass density (315.65 K, x1 = 0.61): 766.457 ± 0.54 kg/m3; mass density (315.65 K, x1 = 0.688): 756.499 ± 0.55 kg/m3; mass density (315.65 K, x1 = 0.797): 742.532 ± 0.57 kg/m3; mass density (315.65 K, x1 = 0.902): 729.096 ± 0.59 kg/m3; mass density (315.65 K, x1 = 0.943): 723.661 ± 0.6 kg/m3; mass density (315.65 K, x1 = 1): 715.636 ± 0.6 kg/m3; speed of sound (318.15 K, x1 = 0.053): 1203.4 ± 2.1 m/s; speed of sound (318.15 K, x1 = 0.116): 1185.8 ± 2.1 m/s; speed of sound (318.15 K, x1 = 0.199): 1164.7 ± 2.1 m/s; speed of sound (318.15 K, x1 = 0.301): 1137.8 ± 2.1 m/s; speed of sound (318.15 K, x1 = 0.371): 1118.5 ± 2.1 m/s; speed of sound (318.15 K, x1 = 0.463): 1094.2 ± 2.1 m/s; speed of sound (318.15 K, x1 = 0.61): 1054.8 ± 2.1 m/s; speed of sound (318.15 K, x1 = 0.688): 1033.8 ± 2.1 m/s; speed of sound (318.15 K, x1 = 0.797): 1004.6 ± 2.1 m/s; speed of sound (318.15 K, x1 = 0.902): 975.59 ± 2.1 m/s; speed of sound (318.15 K, x1 = 0.943): 963 ± 2.1 m/s; speed of sound (318.15 K, x1 = 1): 945.54 ± 2.1 m/s; mass density (318.15 K, x1 = 0.053): 836.384 ± 0.44 kg/m3; mass density (318.15 K, x1 = 0.116): 828.127 ± 0.45 kg/m3; mass density (318.15 K, x1 = 0.199): 817.267 ± 0.46 kg/m3; mass density (318.15 K, x1 = 0.301): 803.893 ± 0.48 kg/m3; mass density (318.15 K, x1 = 0.371): 794.887 ± 0.49 kg/m3; mass density (318.15 K, x1 = 0.463): 782.821 ± 0.51 kg/m3; mass density (318.15 K, x1 = 0.61): 763.899 ± 0.54 kg/m3; mass density (318.15 K, x1 = 0.688): 753.908 ± 0.55 kg/m3; mass density (318.15 K, x1 = 0.797): 739.897 ± 0.57 kg/m3; mass density (318.15 K, x1 = 0.902): 726.409 ± 0.59 kg/m3; mass density (318.15 K, x1 = 0.943): 720.958 ± 0.6 kg/m3; mass density (318.15 K, x1 = 1): 712.897 ± 0.6 kg/m3; speed of sound (320.65 K, x1 = 0.053): 1192.9 ± 2.1 m/s; speed of sound (320.65 K, x1 = 0.116): 1175.2 ± 2.1 m/s; speed of sound (320.65 K, x1 = 0.199): 1154.1 ± 2.1 m/s; speed of sound (320.65 K, x1 = 0.301): 1127 ± 2.1 m/s; speed of sound (320.65 K, x1 = 0.371): 1107.7 ± 2.1 m/s; speed of sound (320.65 K, x1 = 0.463): 1083.4 ± 2.1 m/s; speed of sound (320.65 K, x1 = 0.61): 1043.8 ± 2.1 m/s; speed of sound (320.65 K, x1 = 0.688): 1022.8 ± 2.1 m/s; speed of sound (320.65 K, x1 = 0.797): 993.5 ± 2.1 m/s; speed of sound (320.65 K, x1 = 0.902): 964.4 ± 2.1 m/s; speed of sound (320.65 K, x1 = 0.943): 951.77 ± 2.1 m/s; speed of sound (320.65 K, x1 = 1): 934.24 ± 2.1 m/s; mass density (320.65 K, x1 = 0.053): 834.008 ± 0.44 kg/m3; mass density (320.65 K, x1 = 0.116): 825.73 ± 0.45 kg/m3; mass density (320.65 K, x1 = 0.199): 814.847 ± 0.47 kg/m3; mass density (320.65 K, x1 = 0.301): 801.438 ± 0.49 kg/m3; mass density (320.65 K, x1 = 0.371): 792.407 ± 0.5 kg/m3; mass density (320.65 K, x1 = 0.463): 780.31 ± 0.52 kg/m3; mass density (320.65 K, x1 = 0.61): 761.327 ± 0.54 kg/m3; mass density (320.65 K, x1 = 0.688): 751.303 ± 0.56 kg/m3; mass density (320.65 K, x1 = 0.797): 737.246 ± 0.58 kg/m3; mass density (320.65 K, x1 = 0.902): 723.713 ± 0.6 kg/m3; mass density (320.65 K, x1 = 0.943): 718.237 ± 0.61 kg/m3; mass density (320.65 K, x1 = 1): 710.141 ± 0.6 kg/m3; speed of sound (323.15 K, x1 = 0.053): 1182.4 ± 2.1 m/s; speed of sound (323.15 K, x1 = 0.116): 1164.6 ± 2.1 m/s; speed of sound (323.15 K, x1 = 0.199): 1143.5 ± 2.1 m/s; speed of sound (323.15 K, x1 = 0.301): 1116.4 ± 2.1 m/s; speed of sound (323.15 K, x1 = 0.371): 1097 ± 2.1 m/s; speed of sound (323.15 K, x1 = 0.463): 1072.5 ± 2.1 m/s; speed of sound (323.15 K, x1 = 0.61): 1032.9 ± 2.1 m/s; speed of sound (323.15 K, x1 = 0.688): 1011.9 ± 2.1 m/s; speed of sound (323.15 K, x1 = 0.797): 982.48 ± 2.1 m/s; speed of sound (323.15 K, x1 = 0.902): 953.28 ± 2.1 m/s; speed of sound (323.15 K, x1 = 0.943): 940.59 ± 2.1 m/s; speed of sound (323.15 K, x1 = 1): 922.97 ± 2.1 m/s; mass density (323.15 K, x1 = 0.053): 831.624 ± 0.44 kg/m3; mass density (323.15 K, x1 = 0.116): 823.329 ± 0.46 kg/m3; mass density (323.15 K, x1 = 0.199): 812.42 ± 0.47 kg/m3; mass density (323.15 K, x1 = 0.301): 798.979 ± 0.49 kg/m3; mass density (323.15 K, x1 = 0.371): 789.92 ± 0.5 kg/m3; mass density (323.15 K, x1 = 0.463): 777.787 ± 0.52 kg/m3; mass density (323.15 K, x1 = 0.61): 758.745 ± 0.55 kg/m3; mass density (323.15 K, x1 = 0.688): 748.686 ± 0.56 kg/m3; mass density (323.15 K, x1 = 0.797): 734.592 ± 0.58 kg/m3; mass density (323.15 K, x1 = 0.902): 721 ± 0.6 kg/m3; mass density (323.15 K, x1 = 0.943): 715.503 ± 0.61 kg/m3; mass density (323.15 K, x1 = 1): 707.381 ± 0.61 kg/m3
